Test results published in patent US9115385B2, “Methods and compositions for topoisomerase I modulated tumor suppression” (RG BIOPHARMA, LLC, priority 2006, dated 2015).
Values belong to the molecule of their own block, whether it stands above or below them.

Tests used:
topoisomerase I [1] = molecular target: T1, topoisomerase I (Homo sapiens, UniProt P11387); assay: topoisomerase I plasmid relaxation assay, agent added to nuclear extracts in vitro; format: biochemical; settings: for effect on H358 topoisomerase activity: 3, 9, 27 ng added to 0.06 μg H358 extract; for effect on H23 topoisomerase activity: 3, 9, 27 ng added to 0.6 μg H23 extract
T1 construct: endogenous in cells; host or cells: H358 and H23 cells
T1 sequence (P11387 2-765 limits assumed): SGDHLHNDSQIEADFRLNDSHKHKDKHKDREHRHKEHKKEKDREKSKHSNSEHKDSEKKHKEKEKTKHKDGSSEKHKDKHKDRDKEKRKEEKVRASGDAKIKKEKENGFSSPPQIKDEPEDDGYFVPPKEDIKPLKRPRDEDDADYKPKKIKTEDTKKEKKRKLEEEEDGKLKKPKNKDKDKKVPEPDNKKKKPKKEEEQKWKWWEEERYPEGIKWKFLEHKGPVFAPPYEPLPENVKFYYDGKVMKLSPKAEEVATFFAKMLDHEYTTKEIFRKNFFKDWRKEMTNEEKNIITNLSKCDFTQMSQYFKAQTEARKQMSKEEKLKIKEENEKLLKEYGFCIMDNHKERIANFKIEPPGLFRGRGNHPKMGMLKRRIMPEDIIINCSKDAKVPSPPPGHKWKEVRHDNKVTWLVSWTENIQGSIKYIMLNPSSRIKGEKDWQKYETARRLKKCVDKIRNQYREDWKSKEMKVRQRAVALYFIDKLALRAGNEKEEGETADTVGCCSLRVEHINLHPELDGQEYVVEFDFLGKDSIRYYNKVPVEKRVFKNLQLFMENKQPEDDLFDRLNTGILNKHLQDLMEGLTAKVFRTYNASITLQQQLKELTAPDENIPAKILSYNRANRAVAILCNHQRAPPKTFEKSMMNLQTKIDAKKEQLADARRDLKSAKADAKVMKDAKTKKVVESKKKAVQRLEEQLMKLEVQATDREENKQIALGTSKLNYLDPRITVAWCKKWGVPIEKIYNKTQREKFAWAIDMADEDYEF
Description: Similar assays were carried out using the amount of each respective nuclear extract that produced a 50% conversion of supercoiled to relaxed form (0.06 and 0.6 μg extract protein per reaction for H358 and H23, respectively), and added increasing amounts of purified thioredoxin-ARF (3, 9, 27 ng).
Topoisomerase I Assays: Assays were carried out using the Topoisomerase I Assay Kit (Topogen, Florida), according to the instructions provided with the kit and using the high salt nuclear extracts prepared as described above. Briefly, 0.125 μg supercoiled plasmid DNA was incubated with 0-1.3 μg of nuclear extract for 30 minutes at 37° C. The reaction was stopped by adding stop loading dye supplied in the kit and electrophoresed on a 1% agarose/TAE (10 mM TRIS-acetate/1 mM EDTA) gel until the dye front had reached the bottom of the gel. The gel was then stained for 20 minutes in 0.5 μg/mL ethidium bromide, destained in deionized water for 30 minutes, and electrophoresed for an additional hour to enhance band visibility. The gel was photographed and band intensities were analyzed digitally using a Kodak digital camera and analysis software. Some assays were carried out with alkaline phosphatase-treated extracts, prepared as described below, or in the presence of ARF or ARF1β thioredoxin fusion proteins (3, 9, 27 ng), prepared as described above (see pull-down assays).

topoisomerase I [2] = molecular target: T1, topoisomerase I; assay: phosphoserine Western of topoisomerase I after in vitro enzyme treatment; format: biochemical
Excerpt: (§1) The dephosphorylated topoisomerase I from H358 cells could no longer be activated by addition of increasing amounts of ARF fusion protein (FIG. 3B, lanes 7-9).

[3] = tested on: ARF/topoisomerase I complex; assay: ARF binding / co-immunoprecipitation of topoisomerase I after in vitro enzyme treatment; design: species or system human
Excerpt: as §1

[4] = purified recombinant human topoisomerase I

topoisomerase I activity in vitro (topoisomerase I [1]; H358 and H23 nuclear extracts treated with the enzyme): abolished their topoisomerase I activity
topoisomerase I serine phosphorylation (topoisomerase I [2]; H358 and H23 nuclear extracts): eliminated serine phosphorylation
serine phosphorylation of purified recombinant human topoisomerase I (topoisomerase I [2]; [4]): abolished serine phosphorylation
co-immunoprecipitation of topoisomerase I with ARF / complex formation ([3]; nuclear extracts): failed to co-immunoprecipitate
Molecule: alkaline phosphatase
binding of recombinant ARF fusion protein by purified recombinant human topoisomerase I [3, 4]: abolished its ability to bind recombinant ARF fusion protein

Molecule: Thioredoxin-ARF: purified recombinant human ARF-thioredoxin fusion protein, full length
effect on H358 topoisomerase activity (topoisomerase I [1]): enhanced the activity of H358 topoisomerase in a dose-dependent manner
effect on H23 topoisomerase activity (topoisomerase I [1]): no effect

B1: thioredoxin ARF-N-terminus: thioredoxin fusion of the N-terminal 64 amino acid residues of ARF, does not bind topoisomerase I (protein, UniProt Q8N726 1-64, looked up, fragment)
chain: MVRRFLVTLRIRRACGPPRVRVFVVHIPRLTGEWAAPGAPAAVALVLMLLRSQRLGQQPLPRRP
modifications: thioredoxin fusion
effect on H358 topoisomerase activity (topoisomerase I [1]): Neither H358 not H23 topoisomerase activities responded
effect on H23 topoisomerase activity (topoisomerase I [1]): Neither H358 not H23 topoisomerase activities responded
